Experimental findings from patent publication US12195424B2, “Antibiotic compounds” (The General Hospital Corporation, priority 2017, dated 2025) are described below.

By HC50 is commonly meant the concentration giving 50% haemolysis. A lower HC50 goes with stronger haemolysis.

Data set [1] deals with human hepatoma HepG2 cells. As to the kind of experiment: Cytotoxicity (WST-1) in HepG2 cells. In kind it is cell-based. To be noted: compared with CD437, in words. The text has this: (§1) Human hepatoma, HepG2 (ATCC HB-8065) cells were maintained in DMEM containing 10% fetal bovine serum and antibiotics penicillin—streptomycin (100 units/ml). Normal human primary renal proximal tubular epithelial cells (RPTEC, Lonza catalog #CC-2553, Walkersville, MD, USA) and adult normal human epidermal keratinocytes (NHEK, Lonza catalog #192627) were maintained in renal cell growth media with growth supplements (REGM, Lonza catalog #CC-3190) and in keratinocyte growth media 2 with growth supplements (KGM-2, Lonza catalog #CC-3107), respectively in a humidified 5% CO2 incubator at 37° C.
(§2) For cytotoxicity tests, HepG2, RPTEC, and NHEK were cultured at 70-80% confluence in tissue culture treated 96-well plates in a volume of 100 μl/well corresponding culture media. To test cytotoxicity in the absence of serum, all cells were washed twice with PBS and then once with the serum-free corresponding culture media. The cells were then treated with a range of concentrations of retinoids in the serum-free culture media for 24 h. For the last 4 h of the 24 h period, 50 μl and 10 μl of WST-1 (Roche, Mannheim, Germany) were added in each well of the 24-well and the 96-well plates, respectively. WST-1 reduction was measured at 450 nm. The percent fluorescence relative to that of the no-treatment control was calculated. The assay was done in triplicate.
In general terms: Tetrazolium assays rely on reduction of a dye to a coloured formazan, in cell work by metabolically active cells.

Data set [2] can be described thus: Cytotoxicity (WST-1) in HepG2 cells. It is filed as cell-based, human. To be noted: human; HepG2 cells, serum-free media, 24 h; read-out: LC50.
Text: as §1, §2

Another data set concerns MRSA MW2 persisters. Description: Persister killing assay. It is filed as cell-based, S. aureus. The conditions noted are these: MRSA persisters, in words. On the procedure: Persister killing assay. […] Persistency of stationary-phase S. aureus VRS1 was evaluated by treating with 100×MIC daptomycin and 100×MIC linezolid, because the strain is resistant to vancomycin, gentamicin, ciprofloxacin, and rifampicin. We prepared persister cells of the 13 S. aureus strains by growing cultures overnight to stationary phase at 37° C. at 225 rpm. The overnight cultures were washed three times with PBS and diluted to ˜5×10^7 ? CFU/ml with the same buffer. 2 ml of the persister suspension containing appropriate concentrations of antibiotics was added to the wells of a 96-well assay block (Corning Costar 3960) and incubated at 37° C., with shaking at 225 rpm. At specific times, 400 μl samples were removed and washed once with PBS to remove the antibiotic. The samples were serially diluted 10^5 fold with PBS and spot-plated onto TSA plates. After incubating the plates overnight (˜18 h) at 37° C., the colonies were counted to enumerate the number of cells. These experiments were conducted in triplicate.

In the next data set the test system is human erythrocytes. As to the kind of experiment: Human blood hemolysis. In kind it is cell-based. The method, then:
Human blood hemolysis. Hemolytic activity of retinoids on human erythrocytes was evaluated using a previously described method with modifications. 10% human erythrocytes were purchased from Rockland Immunochemicals (Limerick, PA, USA). The erythrocytes were diluted to 4% with PBS, and 100 μl was added to 100 μl of two-fold serial dilutions of compounds in PBS, 0.2% DMSO (negative control), or 2% Triton-X 100 (positive control) in a 96-well plate. The plate was incubated at 37° C. for 1 h and then centrifuged at 500×g for 5 min. 100 μl of the supernatant was transferred to a fresh 96-well plate and absorbance of supernatants was measured at 540 nm. Percent hemolysis was calculated using the following equation: (A540 nm of compound treated sample−A540 nm of 0.1% DMSO treated sample)/(A540 nm of 1% Triton X-100 treated sample−A540 nm of 0.1% DMSO treated sample)×100. HC50 (concentration of compound causing 50% hemolysis) was determined using SigmaPlot 10.0 (Systat Software Inc., San Jose, CA, USA).

Another data set can be described thus: Maximum tolerated dose. To be noted: mice. In kind it is in vivo. On the procedure: Maximum tolerated dose. Six-week-old female CD1 ICR outbred mice (20-25 g) were obtained from Charles River Laboratories (Wilmington, MA, USA). Analog 2 was dissolved in a 1:1 solution of Kolliphor EL (Sigma-Aldrich, St Louis, MO, USA) and ethanol and then diluted 1:10 in saline to a final concentration of 4 mg/ml. Groups of mice (n=6) were treated with 10, 20, 40, 80 mg/kg Analog 2 i.p. or vancomycin (25 mg/kg) every 12 h for 3 days. Control mice were injected with 400 μl of 10% Kolliphor EL/ethanol in saline i.p. every 12 h for 3 days. Mice were closely monitored until they were euthanized at 72 h from the first infection. After euthanizing mice, blood was collected by cardiac puncture. All samples were stored at 4° C. until for analysis. Serum was analyzed for alanine aminotransferase and urea nitrogen content with commercially available kits, following the manufacturer's protocol (Pointe Scientific, Canton, MI, USA). No statistical methods were used to predetermine samples size. The experiments were not randomized, and investigators were not blinded to allocation during experiments and outcome assessment. This study and all experimental protocols were approved by the Rhode Island Hospital Institutional Animal Care and Use Committee (RIH IACUC) and conducted in accordance with the Animal Welfare Act and National Institutes of Health guidelines for animal care and use. Statistical significance among each group was analyzed by one-way ANOVA with post-hoc Tukey test using PASW Statistics 18 (SPSS Inc. Chicago, IL, USA) and GraphPad Prism 7 (GraphPad Software, La Jolla, CA, USA).

The subject of data set [3] is Cutibacterium (Propionibacterium) acnes. As to the kind of experiment: Growth inhibition / MIC against P. acnes. In kind it is cell-based. The conditions noted are these: in words (FIG. 11). The method, then:
Minimal inhibitory concentration (MIC) assay. The MICs of antibiotics were determined by the standard micro-dilution method recommended by the Clinical and Laboratory Standards Institute. The assay was conducted in triplicate.
More specifically, uptake of SYTOX Green by Cutibacterium (Propionibacterium) acnes cells treated with retinoids CD437 and Analog 2 increased, indicating higher permeability (FIG. 12; individual data points (n=3 biologically independent samples) and means are shown).

The mark [4] stands for this setting: every 12 h for 3 days, Analog 2 10-80 mg/kg i.p., vancomycin 25 mg/kg i.p., P>0.7.

`OCc1ccc2cc(-c3ccc(O)c(C45CC6CC(CC(C6)C4)C5)c3)ccc2c1` [Analog 2, 2-(adamantan-1-yl)-4-(6-(hydroxymethyl)naphthalen-2-yl)phenol]: in data set [1], the anticancer activity entry was “significantly reduced”. Moreover, in data set [2], the CC50 at 24 h is greater than 32 µg/mL. Further, the anti-persister activity entry in the data set on MRSA MW2 persisters is reported as “retained bacterial activity against MRSA persisters”. The hemolytic activity result in the data set with human erythrocytes (compared with CD437, in words) is reported as “significantly reduced”. The molecule further gave an HC50 in the data set on human erythrocytes (human erythrocytes, 1 h) greater than 32 µg/mL. For the same molecule, in the data set “Maximum tolerated dose” (setting [4]), the “alanine aminotransferase (ALT) vs. control” value is “lack of significant differences” and the “blood urea nitrogen (BUN) vs. control” value was “lack of significant differences”. Besides, the “hepatic or renal toxicity” value in “Maximum tolerated dose” (up to 80 mg/kg i.p. (highest tested dose) every 12 h for 3 days) is on record as “no detectable”. Also, the growth inhibition result in data set [3] was “inhibit the growth”.
